For assay [1], the system named is 92UG037 (A-R5). The experiment in a line: p24 Gag production inhibition, PHA-PBMs, subtype A isolate 92UG037. The following applies: Human immunodeficiency virus 1, read-out: IC50 against 92UG037 (A-R5). The assay is classed as cell-based, HIV-1. The method, then:
(§1) Drug susceptibility assay. The susceptibility of HIV-1LAI, HIV-2EHO, HIV-2ROD, to various drugs and the cytotoxicity of those drugs was determined by using the MTT assay. Briefly, MT-2 cells (2×10^4/mL) were exposed to 100 TCID50s (50% tissue culture infectious doses) of HIV-1LAI, HIV-2EHO, or HIV-2ROD in the presence or absence of various concentrations of drugs in 96-well microculture plates and were incubated at 37° C. for 7 days. After 100 μL of the medium was removed from each well, 3-(4,5-dimethylthiazol-2-yl)-2,5-diphenyltetrazolium bromide (MTT) solution (10 μL, 7.5 mg/mL in phosphate-buffered saline) was added to each well in the plate, followed by incubation at 37° C. for 4 hours. […] All assays were performed in duplicate or triplicate. To determine the sensitivity of HIV-1Ba-L, HIV-1ERS104 pre, and clinical multi-drug-resistant HIV-1 isolates and different subtypes of HIV-1 isolates to drugs, phytohemagglutinin-activated peripheral blood mononuclear cells (PHA-PBMs; 10^6/mL) were exposed to 50 TCID50 (50% tissue infectious dose) of each HIV-1 isolate and cultured in the presence or absence of various concentrations of drugs in 10-fold serial dilutions in 96-well microtiter culture plates. To determine the drug susceptibility of certain laboratory HIV-1 strains (HIV-1NL4-3), MT-4 cells were used as target cells. MT-4 cells (10^5/mL) were exposed to 100 TCID50 of wild type HIV-1NL4-3 and PI-resistant HIV-1NL4-3 in the presence or absence of various concentrations of drugs and were incubated at 37° C. On day 7 of culture, the supernatant was harvested and the amount of p24 Gag protein was determined by using a fully automated chemiluminescent enzyme immunoassay system (Lumipulse F; Fujirebio Inc., Tokyo, Japan) (22). […] All assays were performed in duplicate or triplicate.
The IC50 values were determined by using PHA-PBMs as target cells and the inhibition of p24 Gag protein production by each drug was used as an endpoint.

Assay [2] deals with HIV-1GRL98065r-40P. The experiment in a line: microbe, parasite or virus in culture. It is filed as cell-based. The following applies: for IC50: Human immunodeficiency virus 1, MT4, read-out: IC50 against HIV-1GRL98065r-40P; for fold change of IC50, HIV-1GRL98065r-40P: compared to HIV-1NL4-3. The procedure: Drug susceptibility assay. The susceptibility of HIV-1LAI, HIV-2EHO, HIV-2ROD, to various drugs and the cytotoxicity of those drugs was determined by using the MTT assay. Briefly, MT-2 cells (2×10^4/mL) were exposed to 100 TCID50s (50% tissue culture infectious doses) of HIV-1LAI, HIV-2EHO, or HIV-2ROD in the presence or absence of various concentrations of drugs in 96-well microculture plates and were incubated at 37° C. for 7 days. After 100 μL of the medium was removed from each well, 3-(4,5-dimethylthiazol-2-yl)-2,5-diphenyltetrazolium bromide (MTT) solution (10 μL, 7.5 mg/mL in phosphate-buffered saline) was added to each well in the plate, followed by incubation at 37° C. for 4 hours. […] All assays were performed in duplicate or triplicate. To determine the sensitivity of HIV-1Ba-L, HIV-1ERS104 pre, and clinical multi-drug-resistant HIV-1 isolates and different subtypes of HIV-1 isolates to drugs, phytohemagglutinin-activated peripheral blood mononuclear cells (PHA-PBMs; 10^6/mL) were exposed to 50 TCID50 (50% tissue infectious dose) of each HIV-1 isolate and cultured in the presence or absence of various concentrations of drugs in 10-fold serial dilutions in 96-well microtiter culture plates. To determine the drug susceptibility of certain laboratory HIV-1 strains (HIV-1NL4-3), MT-4 cells were used as target cells. MT-4 cells (10^5/mL) were exposed to 100 TCID50 of wild type HIV-1NL4-3 and PI-resistant HIV-1NL4-3 in the presence or absence of various concentrations of drugs and were incubated at 37° C. On day 7 of culture, the supernatant was harvested and the amount of p24 Gag protein was determined by using a fully automated chemiluminescent enzyme immunoassay system (Lumipulse F; Fujirebio Inc., Tokyo, Japan) (22). […] All assays were performed in duplicate or triplicate. […]

Assay [3] relates to HIV-1ATV1μM. Kind of assay: microbe, parasite or virus in culture. It is filed as cell-based. The following applies: for IC50: Human immunodeficiency virus 1, MT4, read-out: IC50 against HIV-1ATV1μM; for fold change of IC50, HIV-1ATV1μM: compared to wild-type HIV-1NL4-3. The procedure: as §1
Generation of PI-resistant HIV-1 in vitro. MT-4 cells (10^5/mL) were exposed to HIV-1NL4-3 (500 TCID50) and cultured in the presence of various PIs at an initial concentration of its IC50 values. Viral replication was monitored by determination of the amount of p24 Gag produced by MT-4 cells. The culture supernatants were harvested on day 7 and used to infect fresh MT-4 cells for the next round of culture in the presence of increasing concentrations of each drug. […] Proviral DNA samples obtained from the lysates of infected cells were subjected to nucleotide sequencing. This drug selection procedure was carried out until the drug concentration reached 1 or 5 μM.

Assay [4] relates to HIV-1ERS104pre (wild-type: X4). Kind of assay: p24 Gag production inhibition, PHA-PBMs, wild-type clinical isolate. The assay is classed as cell-based. The method, then:
as §1
The amino acid substitutions identified in the protease-encoding region of HIV-1ERS104pre, HIV-1TM, HIV-1MM, HIV-1JSL, HIV-1B, HIV-1C, HIV-1G compared to the consensus type B sequence cited from the Los Alamos database include L63P; L10I, K14R, R41K, M46L, I54V, L63P, A71V, V82A, L90M; I93L; L10I, K43T, M46L, I54V, L63P, A71V, V82A, L90M, Q92K; L10I, L24I, I33F, E35D, M36I, N37S, M46L, I54V, R57K, I62V, L63P, A71V, G73S, V82A; L10I, K14R, L33I, M36I, M46I, F53I, K55R, I62V, L63P, A71V, G73S, V82A, L90M, I93L; L10I, I15V, K20R, L24I, M36I, M46L, I54V, I62V, L63P, K70Q, V82A, L89M; and L10I, V11I, T12E, I15V, L19I, R41K, M46L, L63P, A71T, V82A, L90M, respectively. HIV-1ERS104pre served as a source of wild-type HIV-1. The IC50 values were determined by using PHA-PBMs as target cells and the inhibition of p24 Gag protein production by each drug was used as an endpoint. The numbers in parentheses represent the fold changes of IC50 values for each isolate compared to the IC50 values for wild-type HIV-1ERS104pre. All assays were conducted in duplicate or triplicate, and the data shown represent mean values (±1 standard deviations) derived from the results of three independent experiments.

Where [5] appears, read: Human immunodeficiency virus 1, PHA-PBMs, p24 Gag production, read-out: IC50 against HIV-1ERS104pre (wild-type: X4).
Where [6] appears, read: Human immunodeficiency virus 1, read-out: IC50 against HIV-1ERS104pre (wild-type: X4).

Each structure is given as a SMILES string. Like-named read-outs stand apart in the source and are kept apart here. Some results are limits rather than exact numbers.

What is called IC50 is the concentration that gives 50% inhibition.

In the case of `CC(C)c1nc(CN(C)C(=O)N[C@H](C(=O)N[C@@H](Cc2ccccc2)C[C@H](O)[C@H](Cc2ccccc2)NC(=O)OCc2cncs2)C(C)C)cs1` [RTV, ritonavir], the 50% inhibitory concentration (IC50) in assay [1] amounted to 41 ± 8 nM.
On the same count and under the same terms, as for `Cc1c(O)cccc1C(=O)N[C@@H](CSc1ccccc1)[C@H](O)CN1C[C@H]2CCCC[C@H]2C[C@H]1C(=O)NC(C)(C)C` [NFV, Nelfinavir], the figure is 56 ± 14 nM.
Turning to `CC(C)CN(C[C@@H](O)[C@H](Cc1ccccc1)NC(=O)O[C@H]1CCOC1)S(=O)(=O)c1ccc(N)cc1` [APV, Amprenavir], the IC50 in assay [2] is greater than 1000 nM; in assay [3] it was 200 ± 70 nM; in assay [4] (setting [5]), 29 ± 5 nM.
Consider `CC(C)(C)NC(=O)[C@@H]1C[C@@H]2CCCC[C@@H]2CN1C[C@@H](O)[C@H](Cc1ccccc1)NC(=O)[C@H](CC(N)=O)NC(=O)c1ccc2ccccc2n1` [SQV, Saquinavir], for which the concentration for half-maximal inhibition (IC50) turned out to be 32 nM in assay [2], 3.2 ± 0.3 nM in assay [1], 37 ± 4 nM in assay [3] and 8 ± 3 nM in assay [4] (setting [6]). For the same molecule, the “fold change of IC50, HIV-1GRL98065r-40P” value in assay [2] is 5. Moreover, the “fold change of IC50, HIV-1ATV1μM” value in assay [3] is reported as 5.
`CC(C)(C)NC(=O)[C@@H]1CN(Cc2cccnc2)CCN1C[C@@H](O)C[C@@H](Cc1ccccc1)C(=O)N[C@H]1c2ccccc2C[C@H]1O` [IDV, indinavir]: the IC50 in assay [2] was found to be 280 nM; in assay [3], 388 ± 1 nM; in assay [4] (setting [5]) it was 24 ± 8 nM.
Consider `CC(C)CN(CC(O)C(Cc1ccccc1)NC(=O)OC1COC2OCCC12)S(=O)(=O)c1ccc2c(c1)OCO2` (centres unmarked) [GRL-98065], for which, in assay [2], the IC50 is 180 nM and the “fold change of IC50, HIV-1GRL98065r-40P” value stood at 600. Further, in assay [1], the IC50 was 0.4 ± 0.1 nM. In assay [3], the IC50 was found to be 1.5 ± 0.9 nM and the “fold change of IC50, HIV-1ATV1μM” value came to 5.
With `Cc1cccc(C)c1OCC(=O)N[C@@H](Cc1ccccc1)[C@@H](O)C[C@H](Cc1ccccc1)NC(=O)[C@H](C(C)C)N1CCCNC1=O` [LPV, lopinavir], in assay [4] (setting [5]), the IC50 is 7 ± 1 nM.
For the molecule `COC(=O)N[C@H](C(=O)N[C@@H](Cc1ccccc1)[C@@H](O)CN(Cc1ccc(-c2ccccn2)cc1)NC(=O)[C@@H](NC(=O)OC)C(C)(C)C)C(C)(C)C` [ATV, Atazanavir], the IC50 in assay [2] was 11 nM; in assay [1], 2.5 ± 0.2 nM; in assay [3], 330 nM; in assay [4] (setting [6]) it was 3.8 ± 0.4 nM. In addition, the “fold change of IC50, HIV-1GRL98065r-40P” value in assay [2] is 3. In addition, the “fold change of IC50, HIV-1ATV1μM” value in assay [3] was 79.

(Values after US9808527B2, “Methods and compositions for treating HIV infections” (priority 2006, dated 2017).)
